According to US11091478B2 (Fochon Pharmaceuticals, Ltd., priority 2017, dated 2021):

Columns and labels:
RS4;11 cells = assay: Cell proliferation assay (MTS), RS4;11 cells, 72 h; type: cell-based; conditions: Homo sapiens, RS4-11, 72 h
Method in brief: (§1)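 Treatment lasts 72 h for RS4;11 and 120 h for DOHH2 cells seeded at 5000 per well in serum-containing RPMI-1640. A 2 h MTS step, halted with 10% SDS, precedes dual-wavelength absorbance reading and IC50 fitting.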

DOHH2 cells = assay: Cell proliferation assay (MTS), DOHH2 cells, 120 h; type: cell-based; conditions: Homo sapiens, DOHH-2, 120 h
Method in brief: as §1

IC50 (RS4;11 cells)	Structure (SMILES)	IC50 (DOHH2 cells)
82 nM	CC1(C)CCC(CN2CCN(c3ccc(C(=O)NS(=O)(=O)c4cc5c(c([N+](=O)[O-])c4)N[C@H](c4ccc(F)cc4)CO5)c(Oc4cnc5[nH]ccc5c4)c3)CC2)=C(c2ccc(Cl)cc2)C1 [Example 2-166, (R)-2-((1H-pyrrolo[2,3-b]pyridin-5-yl)oxy)-4-(4-((4′-chloro-5,5-dimethyl-3,4,5,6-tetra-hydro-[1,1′-biphenyl]-2-yl)methyl)piperazin-1-yl)-N-((3-(4-fluorophenyl)-5-nitro-3,4-dihydro-2H-benzo[b][1,4]oxazin-7-yl)sulfo-nyl)benzamide]	300 nM
33 nM	CC1(C)CCC(CN2CCN(c3ccc(C(=O)NS(=O)(=O)c4cc5c(c([N+](=O)[O-])c4)N[C@@H](c4ccc(S(C)(=O)=O)cc4)CO5)c(Oc4cnc5[nH]ccc5c4)c3)CC2)=C(c2ccc(Cl)cc2)C1 [Example 2-168, (S)-2-((1H-pyrrolo[2,3-b]pyridin-5-yl)oxy)-4-(4-((4′-chloro-5,5-dimethyl-3,4,5,6-tetra-hydro-[1,1′-biphenyl]-2-yl)methyl)piperazin-1-yl)-N-((3-(4-(methylsulfonyl)phenyl)-5-nitro-3,4-dihydro-2H-benzo[b][1,4]oxazin-7-yl)sulfonyl)benzamide]	32 nM
53 nM	CC1(C)CCC(CN2CCN(c3ccc(C(=O)NS(=O)(=O)c4cc5c(c([N+](=O)[O-])c4)N[C@H](c4ccc(S(C)(=O)=O)cc4)CO5)c(Oc4cnc5[nH]ccc5c4)c3)CC2)=C(c2ccc(Cl)cc2)C1 [Example 2-175, (R)-2-((1H-pyrrolo[2,3-b]pyridin-5-yl)oxy)-4-(4-((4′-chloro-5,5-dimethyl-3,4,5,6-tetra-hydro-[1,1′-biphenyl]-2-yl)methyl)piperazin-1-yl)-N-((3-(4-(methylsulfonyl)phenyl)-5-nitro-3,4-dihydro-2H-benzo[b][1,4]oxazin-7-yl)sulfonyl)benzamide]	139 nM
64 nM	COc1ccc([C@H]2COc3cc(S(=O)(=O)NC(=O)c4ccc(N5CCN(CC6=C(c7ccc(Cl)cc7)CC(C)(C)CC6)CC5)cc4Oc4cnc5[nH]ccc5c4)cc([N+](=O)[O-])c3N2)cc1 [Example 2-176, (S)-2-((1H-pyrrolo[2,3-b]pyridin-5-yl)oxy)-4-(4-((4′-chloro-5,5-dimethyl-3,4,5,6-tetra-hydro-[1,1′-biphenyl]-2-yl)methyl)piperazin-1-yl)-N-((3-(4-methoxyphenyl)-5-nitro-3,4-dihydro-2H-benzo[b][1,4]oxazin-7-yl)sul-fonyl)benzamide]	547 nM
13 nM	CC1(C)CCC(CN2CCN(c3ccc(C(=O)NS(=O)(=O)c4cc5c(c([N+](=O)[O-])c4)N[C@H](c4ccccn4)CO5)c(Oc4cnc5[nH]ccc5c4)c3)CC2)=C(c2ccc(Cl)cc2)C1 [Example 2-177, (R)-2-((1H-pyrrolo[2,3-b]pyridin-5-yl)oxy)-4-(4-((4′-chloro-5,5-dimethyl-3,4,5,6-tetra-hydro-[1,1′-biphenyl]-2-yl)methyl)piperazin-1-yl)-N-((5-nitro-3-(pyridin-2-yl)-3,4-di-hydro-2H-benzo[b][1,4]oxazin-7-yl)sulfonyl) benzamide]	119 nM
18 nM	COc1ccc([C@@H]2COc3cc(S(=O)(=O)NC(=O)c4ccc(N5CCN(CC6=C(c7ccc(Cl)cc7)CC(C)(C)CC6)CC5)cc4Oc4cnc5[nH]ccc5c4)cc([N+](=O)[O-])c3N2)nc1 [Example 2-179, (R)-2-((1H-pyrrolo[2,3-b]pyridin-5-yl)oxy)-4-(4-((4′-chloro-5,5-dimethyl-3,4,5,6-tetra-hydro-[1,1′-biphenyl]-2-yl)methyl)pieprazin-1-yl)-N-((3-(5-methoxypyridin-2-yl)-5-ni-tro-3,4-dihydro-2H-benzo[b][1,4]oxazin-7-yl)sulfonyl)benzamide]	380 nM
8 nM	CC1(C)CCC(CN2CCN(c3ccc(C(=O)NS(=O)(=O)c4cc5c(c([N+](=O)[O-])c4)NC(CC4CCOCC4)CO5)c(Oc4cnc5[nH]ccc5c4)c3)CC2)=C(c2ccc(Cl)cc2)C1 (stereo not drawn) [Example 2-180, 2-((1H-pyrrolo[2,3-b]pyridin-5-yl)oxy)-4-(4-((4′-chloro-5,5-dimethyl-3,4,5,6-tetrahydro-[1,1′-biphenyl]-2-yl)methyl)piperazin-1-yl)-N-((5-nitro-3-((tetrahydro-2H-pyran-4-yl)methyl)-3,4-dihydro-2H-benzo[b][1,4]oxazin-7-yl)sulfonyl)benzamide]	15 nM
45 nM	CC1(C)CCC(CN2CCN(c3ccc(C(=O)NS(=O)(=O)c4cc5c(c([N+](=O)[O-])c4)N[C@H](CC4CCOCC4)CO5)c(Oc4cnc5[nH]ccc5c4)c3)CC2)=C(c2ccc(Cl)cc2)C1 [Example 2-181, (R)-2-((1H-pyrrolo[2,3-b]pyridin-5-yl)oxy)-4-(4-((4′-chloro-5,5-dimethyl-3,4,5,6-tetra-hydro-[1,1′-biphenyl]-2-yl)methyl)piperazin-1-yl)-N-((5-nitro-3-((tetrahydro-2H-pyran-4-yl)methyl)-3,4-dihydro-2H-benzo[b] [1,4]oxazin-7-yl)sulfonyl)benzamide]	84 nM
3 nM	CC1(C)CCC(CN2CCN(c3ccc(C(=O)NS(=O)(=O)c4cc5c(c([N+](=O)[O-])c4)N[C@@H](CC4CCOCC4)CO5)c(Oc4cnc5[nH]ccc5c4)c3)CC2)=C(c2ccc(Cl)cc2)C1 [Example 2-182, (S)-2-((1H-pyrrolo[2,3-b]pyridin-5-yl)oxy)-4-(4-((4′-chloro-5,5-dimethyl-3,4,5,6-tetra-hydro-[1,1′-biphenyl]-2-yl)methyl)piperazin-1-yl)-N-((5-nitro-3-((tetrahydro-2H-pyran-4-yl)methyl)-3,4-dihydro-2H-benzo[b] [1,4]oxazin-7-yl)sulfonyl)benzamide]	16 nM
4 nM	CC1(C)CCC(CN2CCN(c3ccc(C(=O)NS(=O)(=O)c4cc5c(c([N+](=O)[O-])c4)N[C@@H](COC4CCOCC4)CO5)c(Oc4cnc5[nH]ccc5c4)c3)CC2)=C(c2ccc(Cl)cc2)C1 [Example 2-183, (S)-2-((1H-pyrrolo[2,3-b]pyridin-5-yl)oxy)-4-(4-((4′-chloro-5,5-dimethyl-3,4,5,6-tetra-hydro-[1,1′-biphenyl]-2-yl)methyl)piperazin-1-yl)-N-((5-nitro-3-(((tetrahydro-2H-pyran-4-yl)oxy)methyl)-3,4-dihydro-2H-benzo [b][1,4]oxazin-7-yl)sulfonyl)benzamide]	20 nM
3 nM	CC1(C)CCC(CN2CCN(c3ccc(C(=O)NS(=O)(=O)c4cc5c(c([N+](=O)[O-])c4)N[C@H](COC4CCOCC4)CO5)c(Oc4cnc5[nH]ccc5c4)c3)CC2)=C(c2ccc(Cl)cc2)C1 [Example 2-184, (R)-2-((1H-pyrrolo[2,3-b]pyridin-5-yl)oxy)-4-(4-((4′-chloro-5,5-dimethyl-3,4,5,6-tetra-hydro-[1,1′-biphenyl]-2-yl)methyl)piperazin-1-yl)-N-((5-nitro-3-(((tetrahydro-2H-pyran-4-yl)oxy)methyl)-3,4-dihydro-2H-benzo [b][1,4]oxazin-7-yl)sulfonyl)benzamide]	11 nM
1 nM	CC1(C)CCC(CN2CCN(c3ccc(C(=O)NS(=O)(=O)c4cc5c(c([N+](=O)[O-])c4)NC(C4CCOCC4)CO5)c(Oc4cnc5[nH]ccc5c4)c3)CC2)=C(c2ccc(Cl)cc2)C1 (stereo not drawn) [Example 2-185, 2-((1H-pyrrolo[2,3-b]pyridin-5-yl)oxy)-4-(4-((4′-chloro-5,5-dimethyl-3,4,5,6-tetra-hydro[1,1′-biphenyl]-2-yl)methyl)piperazin-1-yl)-N-((5-nitro-3-(tetrahydro-2H-pyran-4-yl)-3,4-dihydro-2H-benzo[b][1,4]oxazin-7-yl)sulfonyl)benzamide]	3 nM
1 nM	CC1(C)CCC(CN2CCN(c3ccc(C(=O)NS(=O)(=O)c4cc5c(c([N+](=O)[O-])c4)N[C@H](C4CCOCC4)CO5)c(Oc4cnc5[nH]ccc5c4)c3)CC2)=C(c2ccc(Cl)cc2)C1 [Example 2-186, (R)-2-((1H-pyrrolo[2,3-b]pyridin-5-yl)oxy)-4-(4-((4′-chloro-5,5-dimethyl-3,4,5,6-tetra-hydro-[1,1′-biphenyl]-2-yl)methyl)piperazin-1-yl)-N-((5-nitro-3-(tetrahydro-2H-pyran-4-yl)-3,4-dihydro-2H-benzo[b][1,4]oxazin-7-yl)sulfonyl)benzamide]	13 nM
2 nM	CC1(C)CCC(CN2CCN(c3ccc(C(=O)NS(=O)(=O)c4cc5c(c([N+](=O)[O-])c4)N[C@@H](C4CCOCC4)CO5)c(Oc4cnc5[nH]ccc5c4)c3)CC2)=C(c2ccc(Cl)cc2)C1 [Example 2-187, (S)-2-((1H-pyrrolo[2,3-b]pyridin-5-yl)oxy)-4-(4-((4′-chloro-5,5-dimethyl-3,4,5,6-tetra-hydro-[1,1′-biphenyl]-2-yl)methyl)piperazin-1-yl)-N-((5-nitro-3-(tetrahydro-2H-pyran-4-yl)-3,4-dihydro-2H-benzo[b][1,4]oxazin-7-yl)sulfonyl)benzamide]	14 nM
1 nM	CC1(C)CCC(CN2CCN(c3ccc(C(=O)NS(=O)(=O)c4cc5c(c([N+](=O)[O-])c4)NC(C4CCC(O)CC4)CO5)c(Oc4cnc5[nH]ccc5c4)c3)CC2)=C(c2ccc(Cl)cc2)C1 (stereo not drawn) [Example 2-188, 2-((1H-pyrrolo[2,3-b]pyridin-5-yl)oxy)-4-(4-((4′-chloro-5,5-dimethyl-3,4,5,6-tetrahydro-[1,1′-biphenyl]-2-yl)methyl)piperazin-1-yl)-N-((3-(4-hydroxycyclohexyl)-5-nitro-3,4-dihydro-2H-benzo[b][1,4]oxazin-7-yl)sulfonyl)benzamide]	19 nM
